Test results taken from patent US20230085307A1, “PYRIDAZINONE COMPOUND AND HERBICIDE” (NISSAN CHEMICAL CORPORATION, priority 2019, published 2023).

How the values were obtained:
late watergrass [1] = assay: Test Example 1: herbicidal activity, application before weed generation under submerged conditions (Table 16, symbol A); type: in vivo, late watergrass (Echinochloa oryzicola); conditions: amount of applied herbicide 320 g/ha
Method in brief: (§1)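 Emulsion formulation, water-diluted to set dose, was put onto the flooded surface (4 cm depth, alluvial soil) the same day weeds were sown and 2.5-leaf rice transplanted. After 3 weeks at 25-30 °C under glass, each species was rated 0 (≤5% kill) to 5 (≥90% kill).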

Japanese bulrush [2] = assay: Test Example 1: herbicidal activity, application before weed generation under submerged conditions (Table 16, symbol B); type: in vivo, Japanese bulrush (Schoenoplectus juncoides); conditions: amount of applied herbicide 320 g/ha
Method in brief: as §1

late watergrass [3] = assay: Test Example 2: herbicidal activity, application during weed generation under submerged conditions (Table 17, symbol A); type: in vivo, late watergrass (Echinochloa oryzicola); conditions: AAH 320 g/ha; application during weed generation, submerged conditions
Method in brief: (§2)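 Wagner pot, alluvial soil, 4 cm flood; mixed sowing of all species; greenhouse 25° C.–30° C. Emulsifiable formulation, water-diluted to predetermined dose, applied to paddy water at 1–2 leaf stage. Effect rated at 3 wk using the earlier test's scoring criteria.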

Japanese bulrush [4] = assay: Test Example 2: herbicidal activity, application during weed generation under submerged conditions (Table 17, symbol B); type: in vivo, Japanese bulrush (Schoenoplectus juncoides); conditions: AAH 320 g/ha; application during weed generation, submerged conditions
Method in brief: as §2

barnyard grass [5] = assay: Test Example 3: herbicidal effect by foliage application, Wagner pot (Table 18, symbol H); type: in vivo, barnyard grass (Echinochloa crus-galli); conditions: for herbicidal effect on barnyard grass (H): 320 g/ha
Method in brief: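 Plants were sown in alluvial soil held under 0.1–0.5 cm standing water and grown 14 days in a greenhouse at 25–30 °C. An emulsifiable formulation, water-diluted to the set dose, was then sprayed onto the foliage, and effects were scored three weeks later using previously defined criteria.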

green foxtail = assay: Test Example 4: herbicidal effect by soil treatment (Table 19, symbol G); type: in vivo, green foxtail (Setaria viridis); conditions: amount of applied herbicide 320 g/ha
Method in brief: (§3)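 Emulsion of test compound, water-diluted to predetermined amount, sprayed on soil after sowing (seed depth ~1.5 cm, sterilized diluvial soil). Greenhouse, 25–30° C. Effect graded at three weeks post-spray.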

barnyard grass [6] = assay: Test Example 4: herbicidal effect by soil treatment (Table 19, symbol H); type: in vivo, barnyard grass (Echinochloa crus-galli); conditions: amount of applied herbicide 320 g/ha
Method in brief: as §3

wild oat [7] = assay: Test Example 4: herbicidal effect by soil treatment (Table 19, symbol I); type: in vivo, wild oat (Avena fatua); conditions: amount of applied herbicide 320 g/ha
Method in brief: as §3

blackgrass [8] = assay: Test Example 4: herbicidal effect by soil treatment (Table 19, symbol J); type: in vivo, blackgrass (Alopecurus myosuroides); conditions: amount of applied herbicide 320 g/ha
Method in brief: as §3

Italian ryegrass [9] = assay: Test Example 4: herbicidal effect by soil treatment (Table 19, symbol K); type: in vivo, Italian ryegrass (Lolium multiflorum); conditions: amount of applied herbicide 320 g/ha
Method in brief: as §3

chickweed = assay: Test Example 4: herbicidal effect by soil treatment (Table 19, symbol P); type: in vivo, common chickweed (Stellaria media); conditions: amount of applied herbicide 320 g/ha
Method in brief: as §3

persian speedwell = assay: Test Example 4: herbicidal effect by soil treatment (Table 19, symbol R); type: in vivo, Persian speedwell (Veronica persica); conditions: amount of applied herbicide 320 g/ha
Method in brief: as §3

wild oat [10] = assay: Test Example 5: herbicidal effect by foliage application, plastic box (Table 20, symbol I); type: in vivo, wild oat (Avena fatua); conditions: foliage application; for I: wild oat, herbicidal effect grade: 320 g/ha, three weeks after application
Method in brief: (§4)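 Post-emergence foliar test in sterilized diluvial soil. Compound applied as water-diluted emulsion at a predetermined rate to 14-day-old plants; evaluation at three weeks.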

blackgrass [11] = assay: Test Example 5: herbicidal effect by foliage application, plastic box (Table 20, symbol J); type: in vivo, blackgrass (Alopecurus myosuroides); conditions: foliage application; for J: blackgrass, herbicidal effect grade: 320 g/ha, three weeks after application
Method in brief: as §4

Italian ryegrass [12] = assay: Test Example 5: herbicidal effect by foliage application, plastic box (Table 20, symbol K); type: in vivo, Italian ryegrass (Lolium multiflorum); conditions: foliage application; for K: Italian ryegrass, herbicidal effect grade: 320 g/ha, three weeks after application
Method in brief: as §4

velvetleaf = assay: Test Example 5: herbicidal effect by foliage application, plastic box (Table 20, symbol M); type: in vivo, velvetleaf (Abutilon theophrasti); conditions: foliage application; for M: velvetleaf, herbicidal effect grade: 320 g/ha, three weeks after application
Method in brief: as §4

redroot pigweed = assay: Test Example 5: herbicidal effect by foliage application, plastic box (Table 20, symbol N); type: in vivo, redroot pigweed (Amaranthus retroflexus); conditions: foliage application; for N: redroot pigweed, herbicidal effect grade: 320 g/ha, three weeks after application
Method in brief: as §4

[13] = AAH 320 g/ha, evaluated three weeks after application

Compound	Herbicidal effect, A: late watergrass (late watergrass [1])	Herbicidal effect, B: Japanese bulrush (Japanese bulrush [2])	herbicidal effect rating, A: late watergrass (late watergrass [3])	herbicidal effect rating, B: Japanese bulrush (Japanese bulrush [4])	herbicidal effect on barnyard grass (H) (barnyard grass [5])	G: green foxtail, herbicidal effect grade (green foxtail)	H: barnyard grass, herbicidal effect grade (barnyard grass [6])	I: wild oat, herbicidal effect grade (wild oat [7])	J: blackgrass, herbicidal effect grade (blackgrass [8])	K: Italian ryegrass, herbicidal effect grade (Italian ryegrass [9])	P: chickweed, herbicidal effect grade (chickweed)	R: persian speedwell, herbicidal effect grade (persian speedwell)	I: wild oat, herbicidal effect grade (wild oat [10])	J: blackgrass, herbicidal effect grade (blackgrass [11])	K: Italian ryegrass, herbicidal effect grade (Italian ryegrass [12])	M: velvetleaf, herbicidal effect grade (velvetleaf)	N: redroot pigweed, herbicidal effect grade (redroot pigweed)	also measured
CCCCOc1ccc2c(-c3c(O)c(C)nn(C)c3=O)c(-c3ccccc3OC)sc2c1 [3-105]	5 (Herbicidal rate of 90% or more (almost completely withered))	5 (Herbicidal rate of 90% or more (almost completely withered))	3 (Herbicidal rate of 40% or more and less than 70%)	3 (Herbicidal rate of 40% or more and less than 70%)	5 (Herbicidal rate of 90% or more (almost completely withered))	3 (Herbicidal rate of 40% or more and less than 70%)	0 (Herbicidal rate of 5% or less (almost no effect))	0 (Herbicidal rate of 5% or less (almost no effect))	0 (Herbicidal rate of 5% or less (almost no effect))	5 (Herbicidal rate of 90% or more (almost completely withered))	3 (Herbicidal rate of 40% or more and less than 70%)	5 (Herbicidal rate of 90% or more (almost completely withered))	4 (Herbicidal rate of 70% or more and less than 90%)	5 (Herbicidal rate of 90% or more (almost completely withered))	5 (Herbicidal rate of 90% or more (almost completely withered))	5 (Herbicidal rate of 90% or more (almost completely withered))	5 (Herbicidal rate of 90% or more (almost completely withered))	–
CCOc1ccccc1-c1sc2cc(C)ccc2c1-c1c(O)c(C)nn(C)c1=O [3-053]	5 (Herbicidal rate of 90% or more (almost completely withered))	5 (Herbicidal rate of 90% or more (almost completely withered))	3 (Herbicidal rate of 40% or more and less than 70%)	3 (Herbicidal rate of 40% or more and less than 70%)	5 (Herbicidal rate of 90% or more (almost completely withered))	5 (Herbicidal rate of 90% or more (almost completely withered))	0 (Herbicidal rate of 5% or less (almost no effect))	4 (Herbicidal rate of 70% or more and less than 90%)	3 (Herbicidal rate of 40% or more and less than 70%)	4 (Herbicidal rate of 70% or more and less than 90%)	4 (Herbicidal rate of 70% or more and less than 90%)	5 (Herbicidal rate of 90% or more (almost completely withered))	5 (Herbicidal rate of 90% or more (almost completely withered))	5 (Herbicidal rate of 90% or more (almost completely withered))	5 (Herbicidal rate of 90% or more (almost completely withered))	5 (Herbicidal rate of 90% or more (almost completely withered))	5 (Herbicidal rate of 90% or more (almost completely withered))	–
CCCC(=O)Oc1c(C)nn(C)c(=O)c1-c1c(-c2ccc(Cl)s2)sc2ccc(F)cc12 [2-391]	5 (Herbicidal rate of 90% or more (almost completely withered))	4 (Herbicidal rate of 70% or more and less than 90%)	3 (Herbicidal rate of 40% or more and less than 70%)	4 (Herbicidal rate of 70% or more and less than 90%)	–	–	–	–	–	–	–	–	–	–	–	–	–	herbicidal effect on H: barnyard grass (barnyard grass [5]; amount of applied herbicide 320 g/ha): 5 (Herbicidal rate of 90% or more (almost completely withered)); herbicidal effect, G: green foxtail (green foxtail): 4 (Herbicidal rate of 70% or more and less than 90%); herbicidal effect, H: barnyard grass (barnyard grass [6]): 4 (Herbicidal rate of 70% or more and less than 90%); herbicidal effect, I: wild oat (wild oat [7]): 0 (Herbicidal rate of 5% or less (almost no effect)); herbicidal effect, J: blackgrass (blackgrass [8]): 2 (Herbicidal rate of 20% or more and less than 40%); herbicidal effect, K: Italian ryegrass (Italian ryegrass [9]): 5 (Herbicidal rate of 90% or more (almost completely withered)); herbicidal effect, P: chickweed (chickweed): 4 (Herbicidal rate of 70% or more and less than 90%); herbicidal effect, R: persian speedwell (persian speedwell): 3 (Herbicidal rate of 40% or more and less than 70%); I: wild oat, herbicidal effect (criteria 0-5) (wild oat [10]; [13]): 3 (Herbicidal rate of 40% or more and less than 70%); J: blackgrass, herbicidal effect (criteria 0-5) (blackgrass [11]; [13]): 3 (Herbicidal rate of 40% or more and less than 70%); K: Italian ryegrass, herbicidal effect (criteria 0-5) (Italian ryegrass [12]; [13]): 5 (Herbicidal rate of 90% or more (almost completely withered)); M: velvetleaf, herbicidal effect (criteria 0-5) (velvetleaf; [13]): 5 (Herbicidal rate of 90% or more (almost completely withered)); N: redroot pigweed, herbicidal effect (criteria 0-5) (redroot pigweed; [13]): 5 (Herbicidal rate of 90% or more (almost completely withered))
CCCC(=O)Oc1c(C)nn(C)c(=O)c1-c1c(-c2ccc(F)cc2OCC)sc2cc(C)ccc12 [3-058]	5 (Herbicidal rate of 90% or more (almost completely withered))	5 (Herbicidal rate of 90% or more (almost completely withered))	4 (Herbicidal rate of 70% or more and less than 90%)	5 (Herbicidal rate of 90% or more (almost completely withered))	5 (Herbicidal rate of 90% or more (almost completely withered))	2 (Herbicidal rate of 20% or more and less than 40%)	0 (Herbicidal rate of 5% or less (almost no effect))	0 (Herbicidal rate of 5% or less (almost no effect))	3 (Herbicidal rate of 40% or more and less than 70%)	0 (Herbicidal rate of 5% or less (almost no effect))	4 (Herbicidal rate of 70% or more and less than 90%)	4 (Herbicidal rate of 70% or more and less than 90%)	5 (Herbicidal rate of 90% or more (almost completely withered))	5 (Herbicidal rate of 90% or more (almost completely withered))	5 (Herbicidal rate of 90% or more (almost completely withered))	5 (Herbicidal rate of 90% or more (almost completely withered))	4 (Herbicidal rate of 70% or more and less than 90%)	–
CCOc1cc(F)ccc1-c1sc2cc(C)ccc2c1-c1c(O)c(C)nn(C)c1=O [3-057]	5 (Herbicidal rate of 90% or more (almost completely withered))	5 (Herbicidal rate of 90% or more (almost completely withered))	4 (Herbicidal rate of 70% or more and less than 90%)	4 (Herbicidal rate of 70% or more and less than 90%)	5 (Herbicidal rate of 90% or more (almost completely withered))	4 (Herbicidal rate of 70% or more and less than 90%)	4 (Herbicidal rate of 70% or more and less than 90%)	3 (Herbicidal rate of 40% or more and less than 70%)	4 (Herbicidal rate of 70% or more and less than 90%)	2 (Herbicidal rate of 20% or more and less than 40%)	5 (Herbicidal rate of 90% or more (almost completely withered))	5 (Herbicidal rate of 90% or more (almost completely withered))	5 (Herbicidal rate of 90% or more (almost completely withered))	5 (Herbicidal rate of 90% or more (almost completely withered))	5 (Herbicidal rate of 90% or more (almost completely withered))	5 (Herbicidal rate of 90% or more (almost completely withered))	5 (Herbicidal rate of 90% or more (almost completely withered))	–
